Source: PMC4648050, “Discovery of Inhibitors of Trypanosoma brucei by Phenotypic Screening of a Focused Protein Kinase Library” (Chemmedchem, 2015)

Columns and labels:
Assay type in all cases: biochemical, human/mammalian
Settings in all cases: compound at 10 μM, read-out: % of activity respect of the control
[1] = target: ERK1 (Homo sapiens, UniProt P27361); assay: Kinase panel: ERK1
Description: (§1) The DDU kinase-focused compound set contains lead-like scaffolds that are designed to target protein kinases; they have kinase hinge binding motifs. Four of the 1H-imidazopyrazinones were screened against a human/mammalian kinase panel at the University of Dundee (http://www.kinase-screen.mrc.ac.uk) at a concentration of 10 μM. At the time of testing the panel contained 79 mammalian kinases selected to provide a broad coverage of the mammalian kinome (∼500 kinases in the human genome).[3] None of the compounds were active against any of the kinases at 10 μM.

[2] = target: ERK2 (Homo sapiens, UniProt P28482); assay: Kinase panel: ERK2
Chain of ERK2 (P28482 whole entry): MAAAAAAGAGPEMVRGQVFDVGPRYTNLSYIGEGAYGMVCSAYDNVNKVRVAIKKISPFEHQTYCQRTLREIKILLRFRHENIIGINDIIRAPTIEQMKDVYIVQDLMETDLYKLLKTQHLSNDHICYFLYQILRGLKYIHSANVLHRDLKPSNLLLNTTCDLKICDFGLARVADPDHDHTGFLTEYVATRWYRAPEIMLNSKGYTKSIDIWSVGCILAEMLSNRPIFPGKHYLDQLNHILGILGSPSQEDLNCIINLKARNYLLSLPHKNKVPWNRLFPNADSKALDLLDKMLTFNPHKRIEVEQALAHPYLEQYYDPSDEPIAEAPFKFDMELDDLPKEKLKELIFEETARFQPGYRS
Description: as §1

[3] = target: T1, PDK1 (Homo sapiens, UniProt O15530); assay: Kinase panel: PDK1
T1 sequence (O15530 1-556): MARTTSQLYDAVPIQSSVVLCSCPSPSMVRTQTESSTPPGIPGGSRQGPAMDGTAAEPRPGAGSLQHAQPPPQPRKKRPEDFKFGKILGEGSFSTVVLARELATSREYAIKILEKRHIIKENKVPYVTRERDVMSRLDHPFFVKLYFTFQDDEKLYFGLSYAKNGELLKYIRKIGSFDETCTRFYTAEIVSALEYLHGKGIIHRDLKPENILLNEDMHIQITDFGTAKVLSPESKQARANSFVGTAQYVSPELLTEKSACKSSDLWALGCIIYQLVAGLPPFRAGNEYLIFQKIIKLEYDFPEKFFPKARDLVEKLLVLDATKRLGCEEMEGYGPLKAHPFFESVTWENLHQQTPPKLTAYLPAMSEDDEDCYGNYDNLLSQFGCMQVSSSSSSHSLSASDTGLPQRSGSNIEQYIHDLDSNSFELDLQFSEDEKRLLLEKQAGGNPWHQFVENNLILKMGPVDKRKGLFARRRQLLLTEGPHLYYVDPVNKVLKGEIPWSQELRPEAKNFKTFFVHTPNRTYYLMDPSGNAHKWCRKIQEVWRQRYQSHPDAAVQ
Description: as §1

[4] = target: PKBb (Homo sapiens, UniProt P31751); assay: Kinase panel: PKBb
Chain of PKBb (P31751 whole entry): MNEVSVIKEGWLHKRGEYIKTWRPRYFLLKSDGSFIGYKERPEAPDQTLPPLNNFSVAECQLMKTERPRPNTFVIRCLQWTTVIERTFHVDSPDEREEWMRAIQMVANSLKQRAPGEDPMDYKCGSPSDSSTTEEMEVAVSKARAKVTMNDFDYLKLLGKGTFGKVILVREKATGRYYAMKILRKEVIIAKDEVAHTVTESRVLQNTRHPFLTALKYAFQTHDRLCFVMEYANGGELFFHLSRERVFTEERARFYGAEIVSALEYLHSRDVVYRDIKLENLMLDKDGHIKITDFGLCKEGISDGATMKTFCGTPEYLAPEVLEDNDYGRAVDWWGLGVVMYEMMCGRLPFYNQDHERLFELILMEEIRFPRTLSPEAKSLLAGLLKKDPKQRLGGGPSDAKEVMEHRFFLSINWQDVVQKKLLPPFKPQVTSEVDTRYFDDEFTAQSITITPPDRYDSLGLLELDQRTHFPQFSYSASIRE
Description: as §1

[5] = target: ROCK 2 (Homo sapiens, UniProt O75116); assay: Kinase panel: ROCK 2
Chain of ROCK 2 (O75116 whole entry): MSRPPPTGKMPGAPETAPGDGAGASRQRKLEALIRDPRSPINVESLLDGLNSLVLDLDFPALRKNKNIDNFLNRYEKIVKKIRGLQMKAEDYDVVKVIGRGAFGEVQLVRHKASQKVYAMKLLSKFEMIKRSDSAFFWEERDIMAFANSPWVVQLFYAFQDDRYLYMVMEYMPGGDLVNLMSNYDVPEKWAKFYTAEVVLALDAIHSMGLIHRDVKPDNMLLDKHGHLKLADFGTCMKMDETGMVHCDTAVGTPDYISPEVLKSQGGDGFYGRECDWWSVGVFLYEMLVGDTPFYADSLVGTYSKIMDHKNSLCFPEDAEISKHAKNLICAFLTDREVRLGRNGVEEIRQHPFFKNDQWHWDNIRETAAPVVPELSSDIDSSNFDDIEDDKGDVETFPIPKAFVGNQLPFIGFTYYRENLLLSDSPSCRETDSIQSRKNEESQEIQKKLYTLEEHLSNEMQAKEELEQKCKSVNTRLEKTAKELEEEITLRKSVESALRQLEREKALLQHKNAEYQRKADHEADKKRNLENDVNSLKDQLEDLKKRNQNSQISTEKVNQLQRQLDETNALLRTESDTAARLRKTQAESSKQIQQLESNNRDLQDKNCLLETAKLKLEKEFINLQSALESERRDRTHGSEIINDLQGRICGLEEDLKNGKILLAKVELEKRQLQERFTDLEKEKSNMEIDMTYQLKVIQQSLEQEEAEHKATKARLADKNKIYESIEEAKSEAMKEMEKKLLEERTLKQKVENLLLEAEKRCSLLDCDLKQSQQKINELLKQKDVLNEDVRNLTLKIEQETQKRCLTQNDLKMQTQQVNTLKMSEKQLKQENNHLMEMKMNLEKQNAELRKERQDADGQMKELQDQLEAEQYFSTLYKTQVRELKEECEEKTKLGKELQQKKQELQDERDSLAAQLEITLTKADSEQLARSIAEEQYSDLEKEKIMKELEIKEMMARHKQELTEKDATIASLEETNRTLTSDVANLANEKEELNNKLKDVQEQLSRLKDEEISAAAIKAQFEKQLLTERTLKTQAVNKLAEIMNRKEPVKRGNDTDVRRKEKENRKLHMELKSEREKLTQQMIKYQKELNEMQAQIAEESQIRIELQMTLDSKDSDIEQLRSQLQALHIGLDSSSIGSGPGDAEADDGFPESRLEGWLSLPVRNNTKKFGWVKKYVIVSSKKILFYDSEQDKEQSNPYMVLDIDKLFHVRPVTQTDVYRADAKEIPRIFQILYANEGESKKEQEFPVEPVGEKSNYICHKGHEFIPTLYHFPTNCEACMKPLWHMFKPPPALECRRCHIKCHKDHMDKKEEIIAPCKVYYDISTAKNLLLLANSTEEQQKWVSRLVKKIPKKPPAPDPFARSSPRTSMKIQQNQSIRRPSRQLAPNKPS
Description: as §1

[6] = target: PKCa (Homo sapiens, UniProt P17252); assay: Kinase panel: PKCa
Description: as §1

[7] = target: CAMK1 (Homo sapiens, UniProt Q14012); assay: Kinase panel: CAMK1
Chain of CAMK1 (Q14012 whole entry): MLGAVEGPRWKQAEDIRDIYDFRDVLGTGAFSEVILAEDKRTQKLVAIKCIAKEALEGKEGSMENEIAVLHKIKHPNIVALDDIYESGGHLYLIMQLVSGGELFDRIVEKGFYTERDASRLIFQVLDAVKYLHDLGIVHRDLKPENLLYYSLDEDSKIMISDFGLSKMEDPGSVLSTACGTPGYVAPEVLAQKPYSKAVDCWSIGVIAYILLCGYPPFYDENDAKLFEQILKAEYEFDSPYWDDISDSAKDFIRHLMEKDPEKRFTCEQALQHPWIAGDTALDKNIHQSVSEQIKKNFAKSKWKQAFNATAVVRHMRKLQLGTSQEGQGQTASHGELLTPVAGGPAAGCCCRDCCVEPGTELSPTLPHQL
Description: as §1

[8] = target: T2, DYRK2 (Homo sapiens, UniProt Q92630); assay: Kinase panel: DYRK2
T2 sequence (Q92630 1-601): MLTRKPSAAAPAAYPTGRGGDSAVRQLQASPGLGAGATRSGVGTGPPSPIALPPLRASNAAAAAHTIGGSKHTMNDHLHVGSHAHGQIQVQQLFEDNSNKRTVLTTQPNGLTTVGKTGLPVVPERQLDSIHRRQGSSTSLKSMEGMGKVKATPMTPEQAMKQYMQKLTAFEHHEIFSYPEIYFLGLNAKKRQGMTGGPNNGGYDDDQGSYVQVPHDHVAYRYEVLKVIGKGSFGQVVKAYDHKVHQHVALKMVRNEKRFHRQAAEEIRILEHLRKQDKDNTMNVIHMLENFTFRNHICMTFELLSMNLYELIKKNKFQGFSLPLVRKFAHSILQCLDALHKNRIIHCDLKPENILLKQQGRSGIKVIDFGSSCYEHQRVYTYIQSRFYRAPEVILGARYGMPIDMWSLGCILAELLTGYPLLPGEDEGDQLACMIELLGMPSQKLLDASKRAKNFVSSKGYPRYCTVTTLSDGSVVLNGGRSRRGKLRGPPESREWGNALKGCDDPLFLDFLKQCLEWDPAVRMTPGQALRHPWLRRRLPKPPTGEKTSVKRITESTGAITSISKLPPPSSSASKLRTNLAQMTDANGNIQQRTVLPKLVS
Description: as §1

[9] = target: SYK (Homo sapiens, UniProt P43405); assay: Kinase panel: SYK
Description: as §1

[10] = target: YES1 (Homo sapiens, UniProt P07947); assay: Kinase panel: YES1
Chain of YES1 (P07947 whole entry): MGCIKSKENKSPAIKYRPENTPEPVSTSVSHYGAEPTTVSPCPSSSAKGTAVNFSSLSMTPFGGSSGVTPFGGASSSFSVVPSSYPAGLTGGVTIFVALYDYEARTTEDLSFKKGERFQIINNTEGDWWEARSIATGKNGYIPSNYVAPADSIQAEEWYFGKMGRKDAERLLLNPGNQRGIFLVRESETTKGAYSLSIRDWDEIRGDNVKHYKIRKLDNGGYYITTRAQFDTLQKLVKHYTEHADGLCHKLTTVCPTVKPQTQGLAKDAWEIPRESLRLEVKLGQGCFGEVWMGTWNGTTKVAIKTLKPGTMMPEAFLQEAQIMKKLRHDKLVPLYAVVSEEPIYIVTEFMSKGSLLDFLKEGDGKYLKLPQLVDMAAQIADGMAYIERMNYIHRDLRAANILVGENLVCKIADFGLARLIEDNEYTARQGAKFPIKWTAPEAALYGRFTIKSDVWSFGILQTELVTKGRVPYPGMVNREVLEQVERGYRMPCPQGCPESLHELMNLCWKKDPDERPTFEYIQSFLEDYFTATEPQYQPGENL
Description: as §1

[11] = target: T3, IKKe (Homo sapiens, UniProt Q14164); assay: Kinase panel: IKKe
T3 sequence (Q14164 1-716): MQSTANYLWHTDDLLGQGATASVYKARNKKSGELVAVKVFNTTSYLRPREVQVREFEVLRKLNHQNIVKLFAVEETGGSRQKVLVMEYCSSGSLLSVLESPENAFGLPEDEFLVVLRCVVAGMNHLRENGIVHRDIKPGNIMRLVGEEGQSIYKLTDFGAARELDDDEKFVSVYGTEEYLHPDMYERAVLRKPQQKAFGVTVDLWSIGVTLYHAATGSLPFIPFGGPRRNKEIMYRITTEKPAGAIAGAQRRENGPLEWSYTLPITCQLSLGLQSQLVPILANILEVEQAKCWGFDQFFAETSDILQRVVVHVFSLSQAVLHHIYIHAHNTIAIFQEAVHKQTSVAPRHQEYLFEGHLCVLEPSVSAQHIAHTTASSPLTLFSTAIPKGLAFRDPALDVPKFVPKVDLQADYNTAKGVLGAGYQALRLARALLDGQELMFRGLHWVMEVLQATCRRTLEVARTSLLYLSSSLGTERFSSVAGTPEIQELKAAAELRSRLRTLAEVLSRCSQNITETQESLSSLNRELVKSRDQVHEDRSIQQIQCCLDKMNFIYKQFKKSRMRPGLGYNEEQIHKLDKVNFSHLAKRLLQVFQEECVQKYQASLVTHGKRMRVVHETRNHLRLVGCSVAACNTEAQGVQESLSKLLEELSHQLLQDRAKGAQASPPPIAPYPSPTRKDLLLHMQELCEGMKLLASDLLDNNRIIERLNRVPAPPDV
Description: as §1

[12] = target: IR-HIS (Homo sapiens, UniProt P06213); assay: Kinase panel: IR-HIS
Description: as §1

Chain of ERK1 (P27361 whole entry): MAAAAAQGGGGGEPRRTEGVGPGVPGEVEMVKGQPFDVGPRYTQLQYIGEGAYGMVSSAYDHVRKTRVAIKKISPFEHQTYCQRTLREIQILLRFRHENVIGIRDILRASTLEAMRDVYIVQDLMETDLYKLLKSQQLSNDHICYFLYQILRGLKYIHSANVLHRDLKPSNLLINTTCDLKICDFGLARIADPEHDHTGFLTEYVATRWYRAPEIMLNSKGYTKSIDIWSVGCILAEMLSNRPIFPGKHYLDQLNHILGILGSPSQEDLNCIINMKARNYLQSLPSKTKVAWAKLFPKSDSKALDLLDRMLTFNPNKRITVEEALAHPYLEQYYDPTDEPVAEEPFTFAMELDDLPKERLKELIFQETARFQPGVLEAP

SMILES	remaining activity at 10 µM [1] [%]	remaining activity at 10 µM [2] [%]	remaining activity at 10 µM [3] [%]	remaining activity at 10 µM [4] [%]	remaining activity at 10 µM [5] [%]	remaining activity at 10 µM [6] [%]	remaining activity at 10 µM [7] [%]	remaining activity at 10 µM [8] [%]	remaining activity at 10 µM [9] [%]	remaining activity at 10 µM [10] [%]	remaining activity at 10 µM [11] [%]	remaining activity at 10 µM [12] [%]
C[C@H](c1ccccc1)n1c(=O)[nH]c2ncc(-c3ccccc3)nc21 [Compound 14, (R)-6-Phenyl-1-(1-phenylethyl)-1H-imidazo[4,5-b]pyrazin-2(3H)-one]	105	121	91	100	85	98	72	89	84	71	91	93
O=c1[nH]c2ncc(-c3ccc(F)cc3)nc2n1C1CCCCC1 [Compound 12, 1-Cyclohexyl-6-(4-fluorophenyl)-1H-imidazo[4,5-b]pyrazin-2(3H)-one]	115	41	98	106	84	94	88	99	100	96	88	119
O=c1[nH]c2ncc(-c3ccc(F)cc3)nc2n1CC1CC1 [Compound 10]	112	84	96	120	78	106	83	94	98	96	94	109
CC(c1ccccc1)n1c(=O)[nH]c2ncc(-c3ccc(F)cc3)nc21 (stereo not drawn) [Compound 1]	153	65	99	117	105	101	87	100	97	94	106	88
